Reference: ChEMBL document CHEMBL4813920, “Metronidazole-conjugates: A comprehensive review of recent developments towards synthesis and medicinal perspective” (Eur J Med Chem, 2021)
In brackets after ≈: the same amount, converted by molar mass.

Key:
Trichomonas vaginalis [1] = assay: Anti-trichomonas activity against Trichomonas vaginalis JT incubated for 48 hrs by hemocytometer based eosin exclusion assay; format: functional, organism-based
Trichomonas vaginalis [2] = assay: Anti-trichomonas activity against Trichomonas vaginalis CDC 085 incubated for 48 hrs by hemocytometer based eosin exclusion assay; format: functional, organism-based; settings: CDC 085, 48 h
Trichomonas vaginalis [3] = assay: Anti-trichomonas activity against Trichomonas vaginalis JT assessed as release of nitric oxide at 0.027 uM preincubated for 3 hrs followed by DAF-FM DA probe addition and measured after 30 mins by confocal microscopy; format: functional; settings: time 3.5 hrs
Trichomonas vaginalis [4] = assay: Anti-trichomonas activity against Trichomonas vaginalis CDC 085 assessed as release of nitric oxide at 0.27 uM preincubated for 3 hrs followed by DAF-FM DA probe addition and measured after 30 mins by confocal microscopy; format: functional; settings: time 3.5 hrs
A549 = assay: Anticancer activity against human A549 cells assessed as inhibition of cell proliferation at 0.5 uM measured after 48 hrs by CCK8 assay relative to control; format: functional
NCI-H446 = assay: Anticancer activity against human NCI-H446 cells assessed as inhibition of cell proliferation at 0.5 uM measured after 48 hrs by CCK8 assay relative to control; format: functional
[5] = Selectivity index, ratio of CC50 for cytotoxicity against human MT4 cells to EC50 for antiviral activity against HIV1 3B infected in human MT4 cells; format: toxicity, cell-based; settings: read-out: Ratio CC50/EC50
[6] = tested on: Human immunodeficiency virus 1; assay: Antiviral activity against HIV1 3B infected in human MT4 cells assessed as reduction in virus-induced cell death incubated for 5 days by MTT assay; format: functional, organism-based; settings: Human immunodeficiency virus 1, 3B, MT4, 120 h
[7] = Cytotoxicity against human MT4 cells assessed as reduction in cell viability after 5 days by MTT assay; format: cell-based; settings: time 5 day
Helicobacter pylori [8] = assay: Potency index, ratio of MIC for metronidazole to test compound for Helicobacter pylori ATCC 43504 incubated for 3 days by agar dilution method; format: functional, NCTC 11637 = CCUG 17874 = ATCC 43504; settings: time 3 day
Helicobacter pylori [9] = assay: Potency index, ratio of MIC for metronidazole to test compound for Helicobacter pylori clinical isolate3 for 3 days by agar dilution method; format: functional; settings: time 3 day
Helicobacter pylori [10] = assay: Potency index, ratio of MIC for metronidazole to test compound for Helicobacter pylori SS1 incubated for 3 days by agar dilution method; format: functional; settings: time 3 day
Helicobacter pylori [11] = assay: Antimicrobial activity against Helicobacter pylori SS1 clinical isolate2 for 3 days by agar dilution method; format: functional; settings: SS1 clinical isolate2, 72 h, time 3 day
Helicobacter pylori [12] = assay: Antimicrobial activity against Helicobacter pylori clinical isolate8 for 3 days by agar dilution method; format: functional; settings: clinical isolate8, 72 h, time 3 day
Helicobacter pylori [13] = assay: Antimicrobial activity against Helicobacter pylori ATCC 43504 incubated for 3 days by agar dilution method; format: functional; settings: NCTC 11637 = CCUG 17874 = ATCC 43504, 72 h, time 3 day
Helicobacter pylori [14] = assay: Potency index, ratio of MIC for metronidazole to test compound for Helicobacter pylori clinical isolate8 for 3 days by agar dilution method; format: functional; settings: time 3 day
Helicobacter pylori [15] = assay: Antimicrobial activity against Helicobacter pylori clinical isolate3 for 3 days by agar dilution method; format: functional; settings: clinical isolate3, 72 h, time 3 day
Helicobacter pylori [16] = assay: Antimicrobial activity against Helicobacter pylori SS1 incubated for 3 days by agar dilution method; format: functional; settings: SS1, 72 h, time 3 day
Helicobacter pylori [17] = assay: Potency index, ratio of MIC for metronidazole to test compound for Helicobacter pylori clinical isolate2 for 3 days by agar dilution method; format: functional; settings: time 3 day
Saccharomyces cerevisiae = assay: Antifungal activity against Beer yeast by two-fold serial dilution technique; format: functional
Escherichia coli = assay: Antibacterial activity against Escherichia coli DH52 by two-fold serial dilution technique; format: functional
Proteus vulgaris [18] = assay: Potency index, ratio of Chloromycin MIC to test compound MIC for antibacterial activity against Proteus vulgaris by two-fold serial dilution technique; format: functional
Staphylococcus aureus = assay: Antibacterial activity against Methicillin-resistant Staphylococcus aureus N315 by two-fold serial dilution technique; format: functional
Shigella dysenteriae = assay: Antibacterial activity against Shigella dysenteriae by two-fold serial dilution technique; format: functional
Proteus vulgaris [19] = assay: Potency index, ratio of Norfloxacin MIC to test compound MIC for antibacterial activity against Proteus vulgaris by two-fold serial dilution technique; format: functional
Cyberlindnera jadinii = assay: Antifungal activity against Candida utilis by two-fold serial dilution technique; format: functional; settings: Williopsis jadinii
Proteus vulgaris [20] = assay: Potency index, ratio of Metronidazole MIC to test compound MIC for antibacterial activity against Proteus vulgaris by two-fold serial dilution technique; format: functional
Proteus vulgaris [21] = assay: Antibacterial activity against Proteus vulgaris by two-fold serial dilution technique; format: functional
B16-F10 = assay: Antiproliferative activity against mouse B16-F10 cells incubated for 24 to 48 hrs by MTT assay; format: functional, cell-based

In the case of `Cc1ncc([N+](=O)[O-])n1CCCl`, the IC50 (Trichomonas vaginalis [1]) is reported as 6 nM, the IC50 (Trichomonas vaginalis [2]) is reported as 240 nM and the Activity (Trichomonas vaginalis [3]) is reported as 9000 a.u. It also gave an Activity (Trichomonas vaginalis [4]) of 9000 a.u.

With `COc1cc2c(Nc3ccc(Br)cc3F)ncnc2cc1OCC1CCN(C(=O)Cn2cncc2[N+](=O)[O-])CC1` the inhibition at 0.5 µM (A549) was 62% and the inhibition at 0.5 µM (NCI-H446) was 59.9%.

`Cc1ncc([N+](=O)[O-])n1CCSc1ccccc1` showed a selectivity ratio [5] of 11, an EC50 [6] of 2230 nM and a CC50 at 120 h [7] of 24800 nM.

With `Cc1ncc([N+](=O)[O-])n1CCOc1cc(O)c2c(=O)c(-c3ccc(O)cc3)coc2c1` the Ratio (Helicobacter pylori [8]) was over 50, the Ratio (Helicobacter pylori [9]) was over 50 and the Ratio (Helicobacter pylori [10]) was over 50. The MIC (Helicobacter pylori [11]) was 0.39 µg/mL (≈ 0.921 µM), the MIC (Helicobacter pylori [12]) was 0.39 µg/mL (≈ 0.921 µM) and the MIC (Helicobacter pylori [13]) was 0.39 µg/mL (≈ 0.921 µM). For the same molecule, the Ratio (Helicobacter pylori [14]) was over 50, the MIC (Helicobacter pylori [15]) was 0.39 µg/mL (≈ 0.921 µM) and the MIC (Helicobacter pylori [16]) was 0.39 µg/mL (≈ 0.921 µM). It also gave a Ratio (Helicobacter pylori [17]) of over 50.

In the case of `CCNc1ccc2c3c(cccc13)C(=O)N(CC(O)Cn1c([N+](=O)[O-])cnc1C)C2=O` (centres undefined), the MIC (Saccharomyces cerevisiae) is reported as 10 µM (≈ 4.23 µg/mL), the MIC (Escherichia coli) is reported as 40 µM (≈ 16.9 µg/mL) and the Ratio (Proteus vulgaris [18]) is reported as 50. For the same molecule, the MIC (Staphylococcus aureus) was 40 µM (≈ 16.9 µg/mL), the MIC (Shigella dysenteriae) was 10 µM (≈ 4.23 µg/mL) and the Ratio (Proteus vulgaris [19]) was 10. The MIC (Cyberlindnera jadinii) was 20 µM (≈ 8.47 µg/mL), the Ratio (Proteus vulgaris [20]) was 95 and the MIC (Proteus vulgaris [21]) was 2 µM (≈ 0.847 µg/mL).

Work on `Cc1cc(C)nc(NS(=O)(=O)c2ccc(/N=C\c3ccc(OCCn4c([N+](=O)[O-])cnc4C)cc3)cc2)n1` yielded an IC50 (B16-F10) of 190 nM.
